From US20100209513A1, “PHARMACEUTICAL COMPOSITION CONTAINING MICRONIZED PARTICLES OF NAPHTHOQUINONE-BASED COMPOUND” (priority 2007, published 2010)

Columns and labels:
Format in all cases: in vivo
[1] = Body weight change in ob/ob mice, micronized particles of 15,16-dihydrotanshinone (Example 12); conditions: ob/ob male mice; 400 mg/kg plus sodium lauryl sulfate in admixture with the feed for 20 days
Protocol: In order to confirm therapeutic efficacy of micronized particles of 15,16-dihydrotanshinone, an animal experiment was carried out as follows.
(§1) For this purpose, 10-week-old ob/ob male mice (Jackson Lab) as an obese mouse model of type 2 diabetes were purchased from Orient Co., Ltd., Korea and were allowed to acclimate to a new environment of the breeding room for 10 days prior to experiments. Animals were fed a solid feed (P5053, Labdiet) as a laboratory animal chow. The ob/ob male mice were housed and allowed to acclimate to a new environment for 10 days, in a breeding room maintained at a temperature of 22±2° C., humidity of 55±5%, and a 12-h light/dark (L/D) cycle (light from 8:00 am. to 8:00 p.m.). According to a randomized blocks design, the thus-acclimated animals were randomly divided into four groups, each consisting of 7 animals: a control group with no administration of any drug sample, a group with administration of a vehicle (sodium lauryl sulfate) only, a group with administration of 15,16-dihydrotanshinone (before microparticulation, 400 mg/kg) plus sodium lauryl sulfate, and a group with administration of micronized particles of 15,16-dihydrotanshinone (400 mg/kg) plus sodium lauryl sulfate. Each group of animals was given drug samples in admixture with the feed for 20 days. […]

[2] = Body weight change in ob/ob mice, effect of sucrose palmitate on micronized cryptotanshinone (Example 11); conditions: cryptotanshinone 400 mg/kg in admixture with the feed for 20 days
Protocol: (§2) In order to ascertain whether sucrose palmitate which is an emulsifier maintains a particle size of micronized particles of cryptotanshinone, prevents the particle agglomeration or aggregation, and enhances therapeutic efficacy of cryptotanshinone, an animal experiment was carried out as follows.
as §1, with “10-week-old” for “For this purpose, 10-week-old”, “(sucrose palmitate)” for “(sodium lauryl sulfate)”, “cryptotanshinone (400 mg/kg),” for “15,16-dihydrotanshinone (before microparticulation, 400 mg/kg) plus sodium lauryl sulfate,”, “cryptotanshinone” for “micronized particles of 15,16-dihydrotanshinone”, “sucrose palmitate.” for “sodium lauryl sulfate.”

[3] = Body weight change in DIO C57BL/6 mice, effect of phosphatidylcholine on micronized cryptotanshinone (Example 8); conditions: DIO C57BL/6 male mice; cryptotanshinone 150 mg/kg PO for 40 days
Protocol: as §2, with “phosphatidylcholine (PC)” for “sucrose palmitate”, “a phospholipid” for “an emulsifier”
For this purpose, 5-week-old C57BL/6 male mice were purchased from Orient Co., Ltd., Korea and were allowed to acclimate to a new environment of the breeding room for 10 days prior to experiments. A DIO (diet-induced obesity) mouse model was established by supplying to animals high-fat diet for 8 weeks. 13-week-old male mice weighing 40 g were used in experiments. Animals were fed a high-fat feed (45 kcal % fat) (D12451, Research Diets Inc., New Brunswick, N.J.) as a laboratory animal chow. The DIO mice were housed and allowed to acclimate to a new environment for 10 days, in a breeding room maintained at a temperature of 22±2° C., humidity of 55±5%, and a 12-h light/dark (L/D) cycle (light from 8:00 a.m. to 8:00 p.m.). […]

[4] = Body weight change in ob/ob mice, effect of chitosan on micronized cryptotanshinone (Example 10); conditions: ob/ob male mice; cryptotanshinone 400 mg/kg in admixture with the feed for 20 days
Protocol: In order to ascertain whether chitosan maintains a particle size of micronized particles of cryptotanshinone, prevents the particle agglomeration or aggregation, and enhances therapeutic efficacy of cryptotanshinone, an animal experiment was carried out as follows.
(§3) 10-week-old ob/ob male mice (Jackson Lab) as an obese mouse model of type 2 diabetes were purchased from Orient Co., Ltd., Korea and were allowed to acclimate to a new environment of the breeding room for 10 days prior to experiments. Animals were fed a solid feed (P5053, Labdiet) as a laboratory animal chow. The ob/ob male mice were housed and allowed to acclimate to a new environment for 10 days, in a breeding mom maintained at a temperature of 22±2° C., humidity of 55±5%, and a 12-h light/dark (L/D) cycle (light from 8:00 am. to 8:00 p.m.). According to a randomized blocks design, the thus-acclimated animals were randomly divided into four groups, each consisting of 7 animals: a control group with no administration of any drug sample, a group with administration of a vehicle (chitosan) only, a group with administration of cryptotanshinone (400 mg/kg), and a group with administration of cryptotanshinone (400 mg/kg) plus chitosan. Each group of animals was given drug samples in admixture with the feed for 20 days. All animals were allowed ad libitum access to water and standard laboratory chow throughout the study period.

[5] = Body weight change in ob/ob mice, effect of calcium silicate on micronized cryptotanshinone (Example 9); conditions: ob/ob male mice; cryptotanshinone 400 mg/kg in admixture with the feed for 20 days
Protocol: In order to ascertain whether calcium silicate maintains a particle size of micronized particles of cryptotanshinone, prevents the particle agglomeration or aggregation, and enhances therapeutic efficacy of cryptotanshinone, an animal experiment was carried out as follows.
as §3, with “room” for “mom”, “(calcium silicate)” for “(chitosan)”, “calcium silicate.” for “chitosan.”, “All animals were allowed ad libitum access to water and standard laboratory chow throughout the study period.” left out

[6] = Body weight change in ob/ob mice, intestine-targeted formulation of micronized β-lapachone (Example 14); conditions: ob/ob male mice; 200 mg/kg in terms of β-lapachone content PO once a day
Protocol: In order to confirm therapeutic efficacy of β-lapachone {7,8-dihydro-2,2-dimethyl-2H-naphtho(2,3-b)dihydropyran-7,8-dione} when micronized particles of β-lapachone was prepared into a formulation of an intestine-targeted drug delivery system, an animal experiment was carried out as follows.
0.2 g of sodium lauryl sulfate (SLS) and 10 g of β-lapachone were mixed and ground. To the resulting mixture were added approximately an equal amount of a water-soluble polymer (hydroxypropyl methylcellulose) relative to β-lapachone, and vehicles such as Croscarmellose sodium and light anhydrous silicic acid, followed by spray drying. Then, the spray-dried product was added to an ethanol solution containing about 20% by weight of Eudragit S-100 as a pH-sensitive polymer and about 2% by weight of PEG #6,000 as a plasticizer, and the mixture was then spray-dried to prepare intestine-targeted formulations.
In order to confirm the efficacy of each formulation, 200 mg/kg of the formulation in terms of β-lapachone content was administered to ob/ob mice once a day and changes in the body weight (BW) of animals were examined.
For this purpose, 10-week-old ob/ob male mice (Jackson Lab) as an obese mouse model of type 2 diabetes were purchased from Orient Co., Ltd., Korea and were allowed to acclimate to a new environment of the breeding room for 10 days prior to experiments. […]

[7] = Body weight change in ob/ob mice, micronized particles of tanshinone IIA (Example 13); conditions: ob/ob male mice; 400 mg/kg plus sodium lauryl sulfate in admixture with the feed for 20 days
Protocol: In order to confirm therapeutic efficacy of micronized particles of tanshinone IIA, an animal experiment was carried out as follows.
For this purpose, 10-week-old ob/ob male mice (Jackson Lab) as an obese mouse model of type 2 diabetes were purchased from Orient Co., Ltd., Korea and were allowed to acclimate to a new environment of the breeding room for 10 days prior to experiments. Animals were fed a solid feed (P5053, Labdiet) as a laboratory animal chow. The ob/ob male mice were housed and allowed to acclimate to a new environment for 10 days, in a breeding room maintained at a temperature of 22±2° C., humidity of 55±5%, and a 12-h light/dark (L/D) cycle (light from 8:00 am. to 8:00 p.m.). According to a randomized blocks design, the thus-acclimated animals were randomly divided into four groups, each consisting of 7 animals: a control group with no administration of any drug sample, a group with administration of a vehicle (sodium lauryl sulfate) only, a group with administration of tanshinone IIA (before microparticulation, 400 mg/kg) plus sodium lauryl sulfate, and a group with administration of micronized particles of tanshinone IIA (400 mg/kg) plus sodium lauryl sulfate. Each group of animals was given drug samples in admixture with the feed for 20 days. All animals were allowed ad libitum access to water and standard laboratory chow throughout the study period.

SMILES: Cc1cccc2c3c(ccc12)C1=C(C(=O)C3=O)C(C)CO1 (stereo not shown) [15,16-dihydrotanshinone]
- Final BW [1]: 55.4 ± 3.1 g

SMILES: C[C@H]1COC2=C1C(=O)C(=O)c1c2ccc2c1CCCC2(C)C [Cryptotanshinone alone, cryptotanshinone]
- Final BW [2]: 53.2 ± 1.3 g
- Final BW [3]: 40.2 ± 1.3 g
- Final BW [4]: 53.2 ± 1.3 g
- Final BW [5]: 53.2 ± 1.3 g

SMILES: CC1(C)CCC2=C(O1)c1ccccc1C(=O)C2=O [Simply finely-divided powder, β-lapachone]
- Final BW [6]: 57.5 ± 1.3 g

SMILES: Cc1coc2c1C(=O)C(=O)c1c-2ccc2c1CCCC2(C)C [Tanshinone IIA before microparticulation, tanshinone IIA]
- Final BW [7]: 58.4 ± 3.3 g
